{"source": "patent US20100144845A1", "about": "“OLIGONUCLEOTIDE SYSTEMS FOR TARGETED INTRACELLULAR DELIVERY” (Massachusetts Institute of Technology, priority 2006, published 2010)", "key": {"PC3 cells": {"test_system": "PC3 cells", "assay": "MTT cell viability assay", "type": "cell-based", "details": "drug concentration 5 μM, Dox to RNA 1:1, treated approximately one hour, total of 72 hours", "procedure": "(§1) Doxorubicin (Dox), a cytotoxic drug commonly used in chemotherapy that can dock into double-stranded portions of nucleic acids because of the stacking capacity of its many-ringed structure, was “loaded” onto oligonucleotides at a molar ratio of 1:1, Dox to RNA, e.g., as described in Bagalkot, V. et al., Angewandte Chemie (International ed 45, 8149-8152 (2006) (the drug concentration was 5 μM). MTT assays were performed essentially as previously described, e.g., in Akaishi, S. et al., The Tohoku Journal of Experimental Medicine 175, 29-42 (1995). Briefly, 100 μl aliquots of LNCaP or PC3 cells (5×10^3 cells/mL) were seeded in 24-well plates (n=5), allowed to grow overnight and treated, for approximately one hour, with 100 μL of either a) nothing; b) Dox alone; c) Dox conjugated with the initial library; d) Dox conjugated to the Rd-12 population of the LNCaP selection; or e) Dox conjugated to the Rd-12 population of the PC3 selection; then washed and further incubated, in fresh media, for a total of 72 hours. The cells were then washed twice with EBSS, treated with 50 μL MTT solution for 4 hours, and lysed with MTT-detergent overnight. The absorbance was measured the following day using micro-plate reader at 570 nm."}, "LNCaP cells": {"test_system": "LNCaP cells", "assay": "MTT cell viability assay", "type": "cell-based", "details": "drug concentration 5 μM, Dox to RNA 1:1, treated approximately one hour, total of 72 hours", "procedure": "as §1"}}, "data": [{"smiles": "COc1cccc2c1C(=O)c1c(O)c3c(c(O)c1C2=O)C[C@@](O)(C(=O)CO)C[C@@H]3O[C@H]1C[C@H](N)[C@H](O)[C@H](C)O1", "note": "[Dox, Doxorubicin]", "values": [{"measurement": "effectiveness (cytotoxicity) in MTT assay", "setting": "PC3 cells", "value": "equipotent against PC3 and LNCaP cells"}, {"measurement": "effectiveness (cytotoxicity) in MTT assay", "setting": "LNCaP cells", "value": "equipotent against PC3 and LNCaP cells"}]}]}
